Experimental data as given in patent publication US20130326728A1, “AGENTS FOR INCREASED RESISTANCE AGAINST OXIDATIVE STRESS CONDITIONS” (KATHOLIEKE UNIVERSITEIT LEUVEN, priority 2010, published 2013).
Entries after “also recorded” stand apart in the source; their conditions may differ.

Assays:
[1] = tested on: Saccharomyces cerevisiae strain BY4741; experiment: Halo test of H2O2 tolerance of OSIP-overexpressing yeast; assay type: cell-based; conditions: 15 μL of 240 mM H2O2, galactose vs glucose agar, 48 h at 30° C.; versus negative controls
Description: Resistance of the selected yeast transformants and the two positive control transformants against oxidative stress induced by H2O2 was additionally assayed in a halo test, by spotting 15 μL of 240 mM H2O2 on SC-ura agar, containing either glucose or galactose, and inoculated with 1/200 of overnight yeast culture as described previously (23). After 48 h of incubation at 30° C., diameters of the halos were measured.
The halo-test comprises a predefined but continuous concentration gradient of H2O2, applied to inoculated agar plates. Upon incubation, circles (halos) of growth inhibition are visible. By comparing the diameter of the halos of plates with yeast grown on glucose (not allowing for expression of the OSIP) and galactose (inducing overexpression of the OSIP) the effect of the OSIP on oxidative stress tolerance was quantified.

[2] = tested on: peroxide-induced ROS in yeast; experiment: ROS accumulation assay (H2DCFDA) in peroxide-treated yeast with exogenous OSIP; assay type: cell-based; conditions: 500 μM peptide, compared to mock treatment
Description: (§1) ROS, after H2O2 treatment in the absence or presence of 500 μM OSIP, were determined using 2,7-dichlorodihydrofluorescein diacetate (H2DCFDA) staining as described previously (24). Survival of WT yeast in PBS following H2O2 treatment in the absence or presence of 500 μM OSIP was assessed as described (25).
(§2) The effect of OSIP108 on endogenous ROS levels induced by peroxide in yeast were evaluated. Peroxide-induced ROS in yeast in the absence and presence of OSIP108 were measured using 2,7-dichlorodihydrofluorescein diacetate (H2DCFDA) (FIG. 3A). […] Moreover, we found the survival of peroxide-treated yeast cells (5 mM) to increase 27-fold upon incubation with 500 μM OSIP108 (FIG. 3B).

WT yeast = experiment: Survival assay of peroxide-treated WT yeast with exogenous OSIP; assay type: cell-based; conditions: for effect on survival of yeast cells after treatment with peroxide (in words): exogenous addition of the peptides
Description: as §1, §2

yeast Δccc2 mutant [3] = experiment: Copper-induced growth inhibition of yeast Δccc2 mutant overexpressing the OSIP108 gene; assay type: cell-based; conditions: overexpression of the gene encoding OSIP108
Text: Copper ions are known to induce apoptosis of hepatocytes, one of the underlying mechanisms of copper-induced toxicity in Wilson's Disease (WD). WD is caused by mutations in the ATPase ATP7b.

[4] = tested on: CHO cell lines expressing ATP7b; experiment: Viability (MTT) of CHO cells expressing ATP7b under toxic copper; assay type: cell-based; conditions: 100 μM OSIP108, 0.75 mM copper, 48 h
Description: (§3) No: viability of cells without addition of peptide; OSIP: OSIP108 was added simultaneously added to cells together with Cu; and OSIP pre: cells were preincubated with the peptide for 12 h prior to addition of Cu.
(§4) CHO cell lines expressing either ATP7b or ATP7b mutant H1069Q (a mutation frequently found in patients having Wilson's Disease) were incubated with OSIP108 (100 μM). The viability of cells was determined after 48 h exposure to toxic copper concentrations of 0.75 mM by MTT assay and calculated relative to cells that receive no copper (100%).

yeast BY4741 = experiment: Yeast growth inhibition by apoptosis-inducing compounds (OD600) with or without OSIP108; assay type: cell-based, Saccharomyces cerevisiae
Description: Yeast growth was monitored upon treatment with different apoptosis-inducing compounds in the presence (black bars) or absence (white bars) of 200 μM OSIP108. Percentage growth was calculated as the ratio of the OD600 of the treated culture over an unstressed yeast culture after 10 h (A) or 48 h (B) of incubation.
In this respect, in parallel with mitochondrial copper toxicity, the use of the other mitochondrial toxins, in casu valproic acid, tunicamycin, doxycyclin and cisplatin, expand the range of causes of mitochondrial dysfunction and help find a broader basis for compounds rescuing mitochondrial dysfunction. Optical density (OD600) of yeast BY4741 was monitored upon treatment with different apoptosis-inducing compounds in the presence or absence of 200 μM OSIP108. OSIP108 and apoptosis-inducers were added simultaneously to the yeast cells. Percentage growth was calculated as the ratio of the OD600 of the treated culture over an unstressed yeast culture after 10 h or 48 h of incubation. […] Also, OSIP108 but not OSIP(C3A) can rescue copper- and cisplatin-induced growth inhibition of yeast

[5] = tested on: human hepatoma cell line HepG2; experiment: HepG2 cell viability (MTT) in presence of copper or cisplatin; assay type: cell-based
Description: The mean and SE of three experiments is shown. No: viability of cells without addition of peptide; OSIP: OSIP108 was added simultaneously added to cells together with Cu; OSIP pre, cells were preincubated with OSIP108 for 12 h prior to addition of Cu.
The human hepatoma cell line HepG2 which naturally expresses hATP7B was incubated with 100 μM of peptide OSIP108. The viability of cells was determined after 48 h exposure to toxic copper concentrations of 0.75 mM by MTT assay. The viability was calculated relative to cells that receive no copper (100%).

[6] = tested on: CHO cell lines expressing ATP7b mutant H1069Q; experiment: Viability (MTT) of CHO cells expressing ATP7b mutant H1069Q under toxic copper; assay type: cell-based; conditions: 100 μM OSIP108, 0.75 mM copper, 48 h
Description: as §3, §4

yeast Δccc2 mutant [7] = experiment: Exogenous OSIP108 on yeast Δccc2 mutant at lethal copper dose (MTT viability dye halo, ROS); assay type: cell-based; conditions: exogenous addition
Description: This was tested by spotting 5 μL of 10 mM OSIP108 onto agar plates containing a yeast Δccc2 mutant, 500 μM CuSO4 and a viability dye based on MTT. Plates were incubated for 24 h and placed at 4° C. for 2 days. Blue halos were indicative of surviving yeast cells.

Col-0 A. thaliana plants = experiment: Paraquat lesion diameter on A. thaliana leaves infiltrated with OSIP108; assay type: in vivo, Arabidopsis thaliana; conditions: three days after paraquat (5 μl, 100 μM); leaf infiltrated with 100 μM OSIP108 24 h before; control 4.45±1.37 mm
Description: At least twelve soil grown, 4 week old Col-0 A. thaliana plants, were used in which one leaf of each plant was syringe-infiltrated with 100 μM OSIP108 dissolved in 1% dimethyl sulphoxide (DMSO). At least 12 control plants were mock treated with 1% DMSO only. After 24 h incubation in the growth chamber, the plants were inoculated with a drop of 5 μl paraquat (100 μM). The lesion diameters caused by the paraquat treatment were measured and compared 2 and 3 days after the treatment.

| Sequence | halo test: average difference in halo diameter / tolerance to H2O2 [1] | peroxide-induced endogenous ROS (DCF fluorescence intensity) [2] | effect on survival of yeast cells after treatment with peroxide (in words) (WT yeast) | copper-induced growth inhibition of Δccc2 mutant (yeast Δccc2 mutant [3]) | copper resistance / viability of CHO cells expressing ATP7b [4] | rescue of copper- and cisplatin-induced growth inhibition of yeast (yeast BY4741) | yeast growth in presence of cisplatin (yeast BY4741; 200 uM OSIP108, 250 and 125 μM cisplatin, compared to control treatment) | rescue of yeast growth inhibition by other apoptosis-inducers (yeast BY4741; 200 μM OSIP108, apoptosis-inducers other than cisplatin) | copper resistance of HepG2 (viability) ([5]; FIG. 5, 100 μM OSIP108, 0.75 mM copper, 48 h, MTT) | survival of HepG2 cells in the presence of copper or cisplatin ([5]; pre-incubation with peptide) | copper resistance / viability of CHO cells expressing ATP7b mutant H1069Q [6] | copper-induced accumulation of reactive oxygen species (ROS) in Δccc2 mutant (yeast Δccc2 mutant [7]) | viability of the Δccc2 yeast mutant (yeast Δccc2 mutant [7]; in presence of copper) | survival of Δccc2 yeast mutant at lethal copper dose (yeast Δccc2 mutant [7]; 5 μL of 10 mM OSIP108 spotted, 500 μM CuSO4) | increase of survival of peroxide-treated yeast cells (WT yeast; 5 mM peroxide, 500 μM OSIP108) | average lesion diameter (Col-0 A. thaliana plants) |
| --- | --- | --- | --- | --- | --- | --- | --- | --- | --- | --- | --- | --- | --- | --- | --- | --- |
| MIIINNDNYLLLFYNNN (listed as Arabidopsis thaliana) [SIP14—1] | significant enhanced tolerance | decrease in the amount of endogenous ROS | less effect than SIP108 | – | – | – | – | – | – | – | – | – | – | – | – | – |
| MIIIYYCFIIIIN (listed as Arabidopsis thaliana) [SIP14—2] | significant enhanced tolerance | decrease in the amount of endogenous ROS | less effect than SIP108 | – | – | – | – | – | – | – | – | – | – | – | – | – |
| MLCVLQGLRE (listed as Arabidopsis thaliana) [OSIP108] | significantly lower | significantly lower | – | could alleviate copper-induced growth inhibition | enhanced the copper resistance; also recorded: significantly enhances copper resistance | can rescue | significant increase in growth | fails to rescue | significantly enhances copper resistance | increased survival | enhanced the copper resistance; also recorded: significantly enhances copper resistance | reduced | increased viability | induces survival | 27 fold | 2.18±1.60 mm |
| MLMYRMRSGAN (listed as Arabidopsis thaliana) [SIP11] | significant enhanced tolerance | decrease in the amount of endogenous ROS | less effect than SIP108 | – | – | – | – | – | – | – | – | – | – | – | – | – |
